The values that follow come from patent publication US20160075653A1, “NEMATICIDAL N-(PHENYLCYCLOALKYL)CARBOXAMIDES AND N-(PHENYLCYCLOALKYL)THIOCARBOXAMIDES” (BAYER CROPSCIENCE AKTIENGESELLSCHAFT, priority 2013, published 2016).

This data set is described as follows: Measurement of log P values by HPLC on reversed phase columns (methods [a] pH 2.3, [b] pH 2.7, [c] pH 7.8). In kind it is physicochemical. How it is done: Measurement of log P-Values:
Measurement of log P Values was Performed According EEC Directive 79/831 Annex V.A8 by HPLC (High Performance Liquid
Chromatography) on reversed phase columns with the following methods: ^[a] Measurement was done at pH 2.3 with 0.1% phosphoric acid and acetonitrile as eluent with a linear gradient from 10% acetonitrile to 95% acetonitrile. ^[b] measurement of LC-MS was done at pH 2.7 with 0.1% formic acid in water and with acetonitrile (contains 0.1% formic acid) as eluent with a linear gradient from 10% acetonitrile to 95% acetonitrile. ^[c] Measurement with LC-MS was done at pH 7.8 with 0.001 molar ammonium hydrogen carbonate solution in water as eluent with a linear gradient from 10% acetonitrile to 95% acetonitrile.
Calibration was done with linear alkan-2-ones (with 3 to 16 carbon atoms) with known log P-values (measurement of log P values using retention times with linear interpolation between successive alkanones). Lambda-max-values were determined using UV-spectra from 200 nm to 400 nm and the peak values of the chromatographic signals.

Where [1] appears, read: HPLC on reversed phase columns, method [b], pH 2.7.
The mark [2] stands for this setting: method [b], HPLC reversed phase, pH 2.7.
Where [3] appears, read: HPLC reversed phase, method [b] (pH 2.7).
Where [4] appears, read: HPLC reversed phase, method [c] pH 7.8.

In the case of `COc1c(C(=O)N[C@@H]2CCC[C@@H]2c2ccc(F)c(F)c2)c(C)nn1C` (relative stereo) [Example 116], the logP under setting [1] is 2.59^[b].
For `Cc1ccc(C(=O)N[C@@H]2CCC[C@@H]2c2ccc(F)c(F)c2)c(Cl)n1` (relative stereo) [Example 117], the logP under setting [1] was 2.86^[b].
`CC(C)Oc1nn(C)cc1C(=O)N[C@@H]1CCC[C@@H]1c1ccc(F)c(F)c1` (relative stereo) [Example 118]: the logP under setting [1] was 3.27^[b].
As to `O=C(N[C@@H]1CCC[C@@H]1c1ccc(F)c(F)c1)c1ccccc1OC(F)F` (relative stereo) [Example 119], under setting [1], the logP was 3.51^[b].
Regarding `O=C(N[C@@H]1CCC[C@@H]1c1ccc(F)c(F)c1)c1c(Cl)ccnc1Cl` (relative stereo) [Example 120], the logP under setting [1] was 3.02^[b].
As for `O=C(N[C@@H]1CCC[C@@H]1c1ccc(F)c(F)c1)c1snc(Cl)c1Cl` (relative stereo) [Example 121], the logP under setting [1] is 4.19^[b].
As to `Cn1nc(C(F)(F)F)c(C(=O)N[C@@H]2CCC[C@@H]2c2ccc(F)c(F)c2)c1F` (relative stereo) [Example 122], under setting [1], the logP was 3.27^[b].
`Cc1nc(Br)sc1C(=O)N[C@@H]1CCC[C@@H]1c1ccc(F)c(F)c1` (relative stereo) [Example 123]: the logP under setting [1] was 3.46^[b].
Take `O=C(N[C@@H]1CCC[C@@H]1c1ccc(F)c(F)c1)c1ccc(C(F)(F)F)nc1Cl` (relative stereo) [Example 124]: the logP under setting [1] is 3.68^[b].
Take `Cn1cc(C(=O)N[C@@H]2CCC[C@H]2c2ccc(F)c(F)c2)c(C(F)F)n1` (relative stereo) [Example 125]: the logP under setting [1] is 2.88^[b].
`CCOc1nn(C)cc1C(=O)N[C@@H]1CCC[C@H]1c1ccc(F)c(F)c1` (relative stereo) [Example 127]: the logP under setting [2] is 3.13^[b].
Take `Cc1nc(C(F)(F)F)c(C(=O)N[C@@H]2CCC[C@H]2c2ccc(F)c(F)c2)s1` (relative stereo) [Example 128]: the logP under setting [2] was 3.42^[b].
For the compound `O=C(N[C@@H]1CCC[C@H]1c1ccc(F)c(F)c1)c1ccsc1I` (relative stereo) [Example 129], the logP under setting [2] was 3.58^[b].
Consider `O=C(N[C@@H]1CCC[C@H]1c1ccc(F)c(F)c1)C1=C(C(F)(F)F)OCCS1` (relative stereo) [Example 130], for which the logP under setting [2] was 3.39^[b].
The same measure, in the same setting: next, `O=C(N[C@@H]1CCC[C@H]1c1ccc(F)c(F)c1)c1ccccc1I` (relative stereo) [Example 131]: 3.56^[b]; `Cn1cccc1C(=O)N[C@@H]1CCC[C@H]1c1ccc(F)c(F)c1` (relative stereo) [Example 132]: 3.23^[b].
As to `Cc1occc1C(=O)N[C@@H]1CCC[C@H]1c1ccc(F)c(F)c1` (relative stereo) [Example 133], the logP under setting [2] is 3.17^[b].
Same read-out and setting: next, `Cc1cc(C(=O)N[C@@H]2CCC[C@H]2c2ccc(F)c(F)c2)c(C)o1` (relative stereo) [Example 134]: 3.46^[b]; `Cn1cc(C(=O)N[C@@H]2CCC[C@H]2c2ccc(F)c(F)c2)c(=O)[nH]1` (relative stereo) [Example 135]: 2.18^[b]; `Cc1ccsc1C(=O)N[C@@H]1CCC[C@H]1c1ccc(F)c(F)c1` (relative stereo) [Example 136]: 3.46^[b].
On the same count and under the same terms, under `O=C(N[C@@H]1CC[C@H]1c1ccccc1Cl)c1ccc(Cl)cc1Cl` (relative stereo) [Example 240] stands 3.84^[b]; under `O=C(N[C@@H]1CC[C@H]1c1ccccc1Cl)c1ccccc1I` (relative stereo) [Example 241], 3.46^[b].
As for `O=C(N[C@@H]1CC[C@H]1c1ccccc1Cl)c1ccccc1C(F)(F)F` (relative stereo) [Example 242], the logP under setting [2] was 3.45^[b].
Turning to `O=C(N[C@@H]1CC[C@H]1c1ccccc1Cl)c1c(F)cccc1F` (relative stereo) [Example 243], the logP under setting [3] is 3.11^[b].
With `O=C(N[C@@H]1CC[C@H]1c1ccccc1Cl)c1ccccc1Br` (relative stereo) [Example 244], the logP under setting [3] was 3.33^[b].
Still for that read-out and setting: under `O=C(N[C@@H]1CC[C@H]1c1ccccc1Cl)c1cccnc1C(F)(F)F` (relative stereo) [Example 245] stands 2.89^[b]; under `O=C(N[C@@H]1CC[C@@H]1c1ccccc1Cl)c1ncc(C(F)(F)F)cc1Cl` (relative stereo) [Example 246], 3.77^[b]; under `O=C(N[C@@H]1CC[C@@H]1c1ccccc1Cl)c1ccc(Cl)cc1Cl` (relative stereo) [Example 249], 3.65^[b].
For `Cn1cc(C(=O)N[C@@H]2CC[C@@H]2c2ccccc2Cl)c(C(F)F)n1` (relative stereo) [Example 255], the logP under setting [3] was 2.47^[b].
As for `O=C(N[C@@H]1CC[C@H]1c1ccc(Cl)cc1Cl)c1ncccc1Cl` (relative stereo) [Example 257], the logP under setting [3] was 3.69^[b].
On to `O=C(N[C@@H]1CC[C@H]1c1ccc(Cl)cc1Cl)c1ncc(C(F)(F)F)cc1Cl` (relative stereo) [Example 258], for which the logP under setting [3] was 4.53^[b].
On to `O=C(N[C@@H]1CC[C@@H]1c1ccc(Cl)cc1Cl)c1ncc(C(F)(F)F)cc1Cl` (relative stereo) [Example 259], for which, under setting [3], the logP is 4.23^[b].
As for `Cn1cc(C(=O)N[C@@H]2CC[C@H]2c2ccccc2Cl)c(C(F)F)n1` (relative stereo) [Example 262], under setting [3], the logP is 2.72^[b].
Turning to `Cn1cc(C(=O)N[C@@H]2CC[C@@H]2c2ccccc2C(F)(F)F)c(C(F)F)n1` (relative stereo) [Example 263], under setting [3], the logP is 2.75^[b].
As for `O=C(N[C@@H]1CC[C@H]1c1ccc(Cl)cc1Cl)c1ccccc1I` (relative stereo) [Example 264], the logP under setting [3] is 4.09^[b].
With `O=C(N[C@@H]1CC[C@H]1c1ccc(Cl)cc1Cl)c1ccc(Cl)cc1Cl` (relative stereo) [Example 265], the logP under setting [3] was 4.48^[b].
The same measure, in the same setting: next, `O=C(N[C@@H]1CC[C@@H]1c1ccc(Cl)cc1Cl)c1ccc(Cl)cc1Cl` (relative stereo) [Example 266]: 4.16^[b]; `O=C(N[C@@H]1CC[C@H]1c1ccccc1C(F)(F)F)c1c(F)cccc1F` (relative stereo) [Example 267]: 3.24^[b].
Turning to `O=C(N[C@@H]1C[C@@H]1c1ccc(Cl)cc1)c1c(F)cccc1F` (relative stereo) [Example 268], the logP under setting [3] is 2.64^[b] and the logP under setting [4] was 2.59^[c];.
With `O=C(N[C@@H]1C[C@@H]1c1ccc(Cl)cc1)c1ccccc1F` (relative stereo) [Example 269], the logP under setting [3] is 2.79^[b] and the logP under setting [4] is 2.75^[c];.
As to `Cn1cc(C(=O)N[C@@H]2CCCC[C@H]2c2ccccc2C(F)(F)F)c(C(F)F)n1` (relative stereo) [Example 288], the logP under setting [3] was 3.56^[b].
Still for that read-out and setting: next, `O=C(N[C@@H]1CCC[C@H]1c1ccccc1C(F)(F)F)c1cccnc1C(F)(F)F` (relative stereo) [Example 289]: 3.27^[b].
As to `O=C(N[C@@H]1CCC[C@@H]1c1ccc(C(F)(F)F)cc1)c1cccnc1` (relative stereo) [Example 298], the logP by setting is: under setting [3], 2.46^[b]; under setting [4], 2.46^[c];.
As to `O=C(N[C@@H]1CCC[C@@H]1c1ccc(C(F)(F)F)cc1)c1ccccc1C(F)(F)F` (relative stereo) [Example 302], the logP is, setting by setting: under setting [3], 3.83^[b]; under setting [4], 3.79^[c];.
For `O=C(N[C@@H]1CCC[C@@H]1c1ccc(C(F)(F)F)cc1)c1ccccc1Br` (relative stereo) [Example 303] the same measures were 3.73^[b] and 3.68^[c];.
As for `O=C(N[C@@H]1CCC[C@@H]1c1ccc(C(F)(F)F)cc1)c1c(F)cccc1F` (relative stereo) [Example 304], the logP runs as follows: under setting [3], 3.51^[b]; under setting [4], 3.47^[c];.
With `O=C(N[C@@H]1CCC[C@@H]1c1ccc(C(F)(F)F)cc1)c1ccccc1[N+](=O)[O-]` (relative stereo) [Example 306], the logP was 3.31^[b] under setting [3] and 3.27^[c]; under setting [4].
Regarding `O=C(N[C@@H]1CCC[C@@H]1c1ccc(C(F)(F)F)cc1)c1cccnc1Cl` (relative stereo) [Example 315], the logP is, setting by setting: under setting [3], 3.04^[b]; under setting [4], 2.98^[c];.
Take `O=C(N[C@@H]1CCC[C@@H]1c1ccccc1F)c1ccccc1Cl` (relative stereo) [Example 316]: the logP by setting is: under setting [3], 3.12^[b]; under setting [4], 3.08^[c];.
On to `CC(C)Oc1ccc([C@H]2CCC[C@H]2NC(=O)c2ccccc2Cl)cc1` (relative stereo) [Example 317], for which the logP was 3.74^[b] under setting [3] and 3.73^[c]; under setting [4].
Taken in the same sequence, the figures for `CC(C)Oc1ccc([C@H]2CCC[C@H]2NC(=O)c2ccccc2[N+](=O)[O-])cc1` (relative stereo) [Example 318] were 3.30^[b] and 3.25^[c];.
Taken in the same sequence, the figures for `O=C(N[C@@H]1CCC[C@@H]1c1ccccc1F)c1ccccc1Br` (relative stereo) [Example 319] were 3.18^[b] and 3.14^[c];.
Taken in the same sequence, the figures for `CC(C)Oc1ccc([C@H]2CCC[C@H]2NC(=O)c2ccccc2C(F)(F)F)cc1` (relative stereo) [Example 325] were 3.90^[b] and 3.84^[c];.
